Where a name gives a salt, the structure may show the parent alone. Read-outs that look alike come from different tables or passages of the source.
Tests used:
Format in all cases: biochemical
recombinant PRL-2 = target: T1, recombinant PRL-2 (Homo sapiens, UniProt Q12974); assay: In vitro phosphatase assay (DiFMUP hydrolysis), PRL-2;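 also: PRL-2 activity read as DiFMUP hydrolysis after 20 min at room temperature with drug, enzyme first pre-reduced at 4 °C for 20 min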
T1 construct: 6xHis (N, cleaved yes); made in house; host or cells: E. coli One Shot BL21 Star
T1 sequence (Q12974 1-167): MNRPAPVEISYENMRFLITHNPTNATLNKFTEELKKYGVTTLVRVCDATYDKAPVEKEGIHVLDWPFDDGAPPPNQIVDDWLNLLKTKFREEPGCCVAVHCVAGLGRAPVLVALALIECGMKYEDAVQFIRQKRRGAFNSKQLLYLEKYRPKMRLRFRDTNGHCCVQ

recombinant PRL-1 = target: T2, recombinant PRL-1 (Homo sapiens, UniProt Q93096); assay: In vitro phosphatase assay (DiFMUP hydrolysis), PRL-1; also: test concentration or dose not given here
T2 construct: 6xHis (N, cleaved yes); made in house; host or cells: E. coli One Shot BL21 Star
T2 sequence (Q93096 1-173): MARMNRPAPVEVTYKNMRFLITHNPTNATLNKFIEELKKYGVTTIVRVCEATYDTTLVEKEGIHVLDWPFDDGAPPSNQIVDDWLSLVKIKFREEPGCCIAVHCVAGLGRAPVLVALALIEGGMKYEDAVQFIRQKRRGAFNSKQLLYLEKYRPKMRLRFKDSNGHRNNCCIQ

recombinant PRL-3 = target: T3, recombinant PRL-3 (Homo sapiens, UniProt O75365); assay: In vitro phosphatase assay (DiFMUP hydrolysis), PRL-3; also: test concentration or dose not given here
T3 construct: 6xHis (N, cleaved yes); made in house; host or cells: E. coli One Shot BL21 Star

[1] = FDA-approved drug screen, activity compared to DMSO

T3 sequence (O75365 whole entry): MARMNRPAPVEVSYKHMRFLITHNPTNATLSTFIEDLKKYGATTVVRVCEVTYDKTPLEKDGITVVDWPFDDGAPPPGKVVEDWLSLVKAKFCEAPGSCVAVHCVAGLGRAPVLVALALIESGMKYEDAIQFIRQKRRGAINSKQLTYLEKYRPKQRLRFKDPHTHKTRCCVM

Compound | % Phosphatase Activity (compared to DMSO) PRL-2 (recombinant PRL-2; [1]) [%] | % Phosphatase Activity (compared to DMSO) PRL-1 (recombinant PRL-1; [1]) [%] | % Phosphatase Activity (compared to DMSO) PRL-3 (recombinant PRL-3; [1]) [%] | % Phosphatase Activity (compared to DMSO) PRL-2 (recombinant PRL-2) [%] | % Phosphatase Activity (compared to DMSO) PRL-1 (recombinant PRL-1) [%] | % Phosphatase Activity (compared to DMSO) PRL-3 (recombinant PRL-3) [%]
CCOc1ccc(Cc2cc([C@@H]3O[C@H](SC)[C@@H](O)[C@H](O)[C@H]3O)ccc2Cl)cc1 [Sotagliflozin (LX4211)] | 88 | 100 | 85 | – | – | –
CC(C)NCC(O)c1ccc(NS(C)(=O)=O)cc1 (stereo not drawn) [Sotalol] | 97 | 98 | 78 | – | – | –
CN1CCN(c2nc(C3=C(c4c[nH]c5ccccc45)C(=O)NC3=O)c3ccccc3n2)CC1 [Sotrastaurin] | 89 | 83 | 85 | – | – | –
C[C@@H]1CN(c2c(F)c(N)c3c(=O)c(C(=O)O)cn(C4CC4)c3c2F)C[C@H](C)N1 [Sparfloxacin] | 98 | 87 | 121 | – | – | –
CN[C@@H]1[C@H](O)[C@H](NC)[C@H]2O[C@@]3(O)C(=O)C[C@@H](C)O[C@H]3O[C@@H]2[C@H]1O.Cl.Cl [Spectinomycin HCl] | 110 | 109 | 77 | – | – | –
CC(=O)S[C@@H]1CC2=CC(=O)CC[C@]2(C)[C@H]2CC[C@@]3(C)[C@@H](CC[C@@]34CCC(=O)O4)[C@H]12 [Spironolactone] | 87 | 84 | 68 | – | – | –
C[C@]12Cc3c[nH]nc3C[C@@H]1CC[C@@H]1[C@@H]2CC[C@@]2(C)[C@H]1CC[C@]2(C)O [Stanozolol] | – | – | – | 84 | 89 | 93
Cc1cn([C@H]2C=C[C@@H](CO)O2)c(=O)[nH]c1=O [Stavudine (d4T)] | 90 | 104 | 88 | – | – | –
[H]/N=C(/N)N[C@H]1[C@H](O)[C@@H](O)[C@H](O[C@@H]2O[C@@H](C)[C@](O)(C=O)[C@H]2O[C@@H]2O[C@@H](CO)[C@H](O)[C@@H](O)[C@@H]2NC)[C@@H](N/C(N)=N\[H])[C@@H]1O [Streptomycin sulfate] | 89 | 105 | 85 | – | – | –
O=C(O)CCC(=O)Nc1ccc(S(=O)(=O)Nc2nccs2)cc1 [Succinylsulfathiazole] | 97 | 85 | 85 | – | – | –
CC1(C)[C@H](C(=O)O)N2C(=O)C[C@H]2S1(=O)=O [Sulbactam sodium] | 112 | 111 | 89 | – | – | –
CC1(C)[C@H](C(=O)O)N2C(=O)C[C@H]2S1(=O)=O [Sulbactam] | 91 | 95 | 81 | – | – | –
Nc1ccc(S(=O)(=O)NC(=O)c2ccccc2)cc1 [Sulfabenzamide] | 121 | 93 | 83 | – | – | –
CC(=O)NS(=O)(=O)c1ccc(N)cc1 [Sulfacetamide Sodium] | 109 | 91 | 74 | – | – | –
COc1ncnc(NS(=O)(=O)c2ccc(N)cc2)c1OC [Sulfadoxine] | 106 | 110 | 76 | – | – | –
[H]/N=C(/N)NS(=O)(=O)c1ccc(N)cc1 [Sulfaguanidine] | 90 | 97 | 77 | – | – | –
COc1cnc(NS(=O)(=O)c2ccc(N)cc2)nc1 [Sulfameter] | 109 | 106 | 91 | – | – | –
Cc1cc(C)nc(NS(=O)(=O)c2ccc(N)cc2)n1 [Sulfamethazine] | 105 | 108 | 82 | – | – | –
Cc1nnc(NS(=O)(=O)c2ccc(N)cc2)s1 [Sulfamethizole] | 99 | 88 | 92 | – | – | –
Cc1cc(NS(=O)(=O)c2ccc(N)cc2)no1 [Sulfamethoxazole] | – | – | – | 96 | 91 | 86

Compound | % Phosphatase Activity (compared to DMSO) PRL-2 (recombinant PRL-2; [1]) [%] | % Phosphatase Activity (compared to DMSO) PRL-1 (recombinant PRL-1; [1]) [%] | % Phosphatase Activity (compared to DMSO) PRL-3 (recombinant PRL-3; [1]) [%] | % Phosphatase Activity (compared to DMSO) PRL-2 (recombinant PRL-2) [%] | % Phosphatase Activity (compared to DMSO) PRL-1 (recombinant PRL-1) [%] | % Phosphatase Activity (compared to DMSO) PRL-3 (recombinant PRL-3) [%]
COc1ccc(NS(=O)(=O)c2ccc(N)cc2)nn1 [Sulfamethoxypyridazine] | 109 | 94 | 77 | – | – | –
Nc1ccc(S(=O)(=O)Nc2ccccn2)cc1 [Sulfapyridine] | 113 | 106 | 84 | – | – | –
O=C(O)c1cc(/N=N/c2ccc(S(=O)(=O)Nc3ccccn3)cc2)ccc1O [Sulfasalazine] | 50 | 67 | 59 | – | – | –
Nc1ccc(S(=O)(=O)Nc2nccs2)cc1 [Sulfathiazole] | 114 | 119 | 87 | – | – | –
Cc1noc(NS(=O)(=O)c2ccc(N)cc2)c1C [Sulfisoxazole] | 95 | 88 | 89 | – | – | –
CC1=C(CC(=O)O)c2cc(F)ccc2/C1=C\c1ccc([S+](C)[O-])cc1 (stereo not drawn) [Sulindac] | 96 | 83 | 85 | – | – | –
COc1cc(O)c(C(=O)c2ccccc2)cc1S(=O)(=O)O [Sulisobenzone] | 95 | 91 | 81 | – | – | –
COc1cc(NS(=O)(=O)c2ccc(N)cc2)nc(OC)n1 [Sulphadimethoxine] | 94 | 92 | 83 | – | – | –
CCN1CCCC1CNC(=O)c1cc(S(N)(=O)=O)ccc1OC (stereo not drawn) [Sulpiride] | 92 | 89 | 70 | – | – | –
CNS(=O)(=O)Cc1ccc2[nH]cc(CCN(C)C)c2c1 [Sumatriptan Succinate] | 84 | 99 | 80 | – | – | –
CCN(CC)CCNC(=O)c1c(C)[nH]c(/C=C2\C(=O)Nc3ccc(F)cc32)c1C [Sunitinib Malate] | 76 | 80 | 65 | – | – | –
CCN(CC)CCNC(=O)c1c(C)[nH]c(/C=C2\C(=O)Nc3ccc(F)cc32)c1C [Sunitinib] | 42 | 67 | 77 | – | – | –
CC(C(=O)O)c1ccc(C(=O)c2cccs2)cc1 (stereo not drawn) [Suprofen] | 95 | 93 | 92 | – | – | –
Cc1ccc(-n2nccn2)c(C(=O)N2CCN(c3nc4cc(Cl)ccc4o3)CC[C@H]2C)c1 [Suvorexant (MK-4305)] | 78 | 86 | 89 | – | – | –
CNC(=O)c1ccc2cc([C@@]3(O)CCn4cncc43)ccc2c1 [TAK-700 (Orteronel)] | 107 | 128 | 87 | – | – | –
Cc1cnc(Nc2ccc(OCCN3CCCC3)cc2)nc1Nc1cccc(S(=O)(=O)NC(C)(C)C)c1 [TG101348 (SAR302503)] | 96 | 97 | 95 | – | – | –
Cn1c(COP(=O)(NCCBr)NCCBr)cnc1[N+](=O)[O-] [TH-302] | 100 | 91 | 95 | – | – | –
Cc1[nH]c(/C=C2\C(=O)Nc3ccccc32)c(C)c1CCC(=O)O [TSU-68 (SU6668, Orantinib)] | 52 | 75 | 52 | – | – | –
C=CC[C@@H]1/C=C(\C)C[C@H](C)C[C@H](OC)[C@H]2O[C@@](O)(C(=O)C(=O)N3CCCC[C@H]3C(=O)O[C@H](/C(C)=C/[C@@H]3CC[C@@H](O)[C@H](OC)C3)[C@H](C)[C@@H](O)CC1=O)[C@H](C)C[C@@H]2OC [Tacrolimus (FK506)] | 78 | 90 | 94 | – | – | –
CN1CC(=O)N2[C@H](c3ccc4c(c3)OCO4)c3[nH]c4ccccc4c3C[C@@H]2C1=O [Tadalafil] | 97 | 109 | 82 | – | – | –

Source: paper PMC8119466, “A screen of FDA-approved drugs identifies inhibitors of protein tyrosine phosphatase 4A3 (PTP4A3 or PRL-3)” (Scientific Reports, 2021)
